Assay results from patent publication US7528226B2, “TGFβ1-inhibitor peptides” (Rojecto de Biomedicina Cima S.L., priority 1998, dated 2009).
No end group written: not given here.

Target: T1, TGFβ1 (Homo sapiens, UniProt P01137)
T1 construct: the mature TGFβ1 is released by another cut; purchased R&D Systems Europe Ltd., Abingdon, UK
Format: cell-based
Conditions: TGFβ1 200 pg/ml
Protocol: A line derived from mink pulmonary epithelium, MV-1-Lu, was used (CCL-64, American Type Cell Culture, Virginia, USA). The cells were grown in 162 cm^2 culture flasks (Costar Corporation, Cambridge, USA) in a stove at 37° C. and 5% CO2, until subconfluence was attained. A complete medium was used: RPMI 1640 with L-glutamine (GibcoBRL, Life Technologies Ltd., Paisley, Scotland) supplemented with 5% of foetal calf serum (FCS, Biological Industries, Kibbutz Beit Haemek, Israel), 10 mM HEPES (1M HEPES Buffer, Bio-Whittaker, Verviers, Belgium) and antibiotics (100 U/ml penicillin and 100 μ/ml streptomycin).
The MV-1-Lu cells grown as indicated above were removed from the bottom of the culture flasks using 5 ml of trypsin-EDTA (Biological Industries, Kibbutz Beit Haemek, Israel), resuspended in complete medium and centrifuged at 1500 rev/min for 8 minutes. After centrifugation the cells were resuspended in complete medium to a concentration of 50,000 cells/ml. For conducting the test, 10 ml of the cell suspension were taken and dispensed in 96-well, flat-bottom culture plates (Costar Corporation, Cambridge, USA), adding 100 μl/well, and were incubated overnight at 37° C. and 5% CO2, which permits adhesion of the cells to the bottom of the wells. […] The final concentration of FCS in the well was 2.5%. After 24 hours of incubation, 1 μCi of tritiated thymidine was added per well (25 Ci/mmol [methyl-^3H]-thymidine, Amersham Life Science, Buckinghamshire, UK) with incubation for a further 12 hours (Grubeck-Loebenstein B. et al. (1989) J. Clin. Invest. 83:764-770; Brennan F M et al. (1990) Clin. Exp. Immunol. 81:278-285).
At the end of the incubation periods the cells were removed from the bottom of the wells with trypsin-EDTA and were collected using a manual harvester (Titertek cell harvester, Skatron Instruments Inc., Sterling, USA) which ruptures the cells, collecting the DNA in nitrocellulose filters (Filter MAT 11731, Skatron Instruments Inc., Sterling, USA) where it is fixed. The filters were placed individually in 5 ml polypropylene tubes to which 4 ml of scintillation fluid was added (Biogreen-11, Reactivos Scharlau S. A., Barcelona, Spain). The activity of each tube was quantified for 90 seconds in a β LKB scintillation counter (Beta plate system, LKB, Uppsala, Sweden).
TGFβ1 is a cytokine that is able to inhibit the growth in vitro of the MV-1-Lu cell line (Grubeck-Loebenstein B. et al. (1989) J. Clin. Invest. 83:764-770; Brennan F M et al. (1990) Clin. Exp. Immunol. 81:278-285), therefore this line was used for testing the blocking effect of peptides on TGFβ1. After different combinations of media, cells and thymidine, we studied the effect of different concentrations of TGFβ1 on incorporation of [methyl-^3H]thymidine by MV-1-Lu cells in culture, for determining the most suitable conditions for the test. […]
The synthetic peptides that are potentially inhibitors of TGFβ1 activity, selected as indicated above in the section: selection of the peptides to be synthesized (both those derived from proteins that bind to TGFβ1 itself) were tested using the MV-1-Lu cell line. The selected peptides are soluble in buffered RPMI medium. The peptides were dissolved in buffered RPMI medium, free from foetal calf serum, and the following was used.
The peptides belonging to the sequence of the receptor, or complementary to the peaks of hydrophilicity of TGFβ1, were incubated for 30 minutes in the presence of this cytokine and were then combined with the cell culture. The peptides derived from the sequence of TGFβ1 were added to the cell culture prior to addition of TGFβ1, since they interact with the receptors of the cell surface. These incubations were effected in 100 μl of the same medium as was used for adding the cells. The active peptides permitted cell growth to a greater or lesser degree depending on its ability to inhibit TGFβ1.

T1 sequence (P01137 279-390): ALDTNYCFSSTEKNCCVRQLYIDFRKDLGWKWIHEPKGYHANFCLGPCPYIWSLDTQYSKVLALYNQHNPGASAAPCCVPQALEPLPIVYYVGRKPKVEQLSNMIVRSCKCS

- inhibitory activity of TGFβ1 (in words) (peptide 200 μg/ml, MV-1-Lu cells): had proved active
Sequence: TSLDASIIWAMMQN [P144, ThrSerLeuAspAlaSerIleIleTrpAlaMetMetGlnAsn]
- dependence of the inhibitory activity on the peptide concentration (dose-response test): activity of the peptide decreases with the decrease in the concentration
